Results as given in ChEMBL document CHEMBL3797050, “Erinacine S, a Rare Sesterterpene from the Mycelia of Hericium erinaceus” (2016).
The source made the active and inactive calls. The calls are words filed in the database; no cut-off is given here.

Experiments:
Mus musculus [1] = test: Decrease in amyloid plaque burden in cerebral cortex of APPswe/PSIdeltaE9 double transgenic C57BL/6J mouse at 30 mg/kg/day administered via oral gavage for 30 days by AB10 staining based immunohistochemical assay; format: functional; set-up: scale not given: the % may be the effect or the level left
Mus musculus [2] = test: Increase in nerve growth factor levels in cerebral cortex of APPswe/PSIdeltaE9 double transgenic C57BL/6J mouse at 30 mg/kg/day administered via oral gavage for 30 days; format: functional, organism-based
Mus musculus [3] = test: Increase in insulin degrading enzyme in cerebral cortex of APPswe/PSIdeltaE9 double transgenic C57BL/6J mouse at 30 mg/kg/day administered via oral gavage for 30 days by Western blot analysis; format: functional
Mus musculus [4] = test: Effect on neprilysin levels in cerebral cortex of APPswe/PSIdeltaE9 double transgenic C57BL/6J mouse at 30 mg/kg/day administered via oral gavage for 30 days by Western blot analysis; format: functional, organism-based

For `CC(C)C1=C2[C@H]3CCC4=C(O)C(=O)[C@@]5(O)CO[C@H]6O[C@@H]([C@@H]4[C@]65O)[C@]3(C)CC[C@@]2(C)CC1`, which Activity (Mus musculus [1]) is on record?
Its Activity is 38.1%.

And the Activity (Mus musculus [2])?
Its Activity is “inactive”.

And the Activity (Mus musculus [3])?
The Activity was 141.1%.

What about the Activity (Mus musculus [4]) of the same compound?
The Activity was “inactive”.

Which Activity (Mus musculus [1]) does the source give for `CC(C)C1=C2C3=CC=C(C=O)C[C@H](O[C@@H]4OC[C@@H](O)[C@H](O)[C@H]4O)[C@]3(C)CC[C@@]2(C)CC1` here?
Its Activity is 40.2%.

And the Activity (Mus musculus [2])?
The Activity was “inactive”.

And the Activity (Mus musculus [3])?
The Activity was 130.5%.

What about the Activity (Mus musculus [4]) of the same compound?
The Activity was “inactive”.
